Measured values as given in patent US10047096B2, “Substituted pyridobenzodiazepinone-derivatives and use thereof” (Bayer Pharma Aktiengesellschaft, priority 2014, dated 2018).

target: human PDGFRβ (Homo sapiens (Human), UniProt P09619); assay: PDGFRβ kinase assay (PDGFRβ-HTRF); type: biochemical; conditions: 10 μM ATP; some mean values from multiple determinations
Method in brief: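 GST-fused human PDGFRβ fragment (R561-L1106) from Sf9 cells was preincubated 15 min with compound in 50 mM HEPES pH 7.5, 10 mM MgCl2, 2.5 mM DTT, 0.01% Triton X-100; substrate was biotinylated poly-Glu,Tyr (4:1).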

Sequence of human PDGFRβ (P09619 561-1106): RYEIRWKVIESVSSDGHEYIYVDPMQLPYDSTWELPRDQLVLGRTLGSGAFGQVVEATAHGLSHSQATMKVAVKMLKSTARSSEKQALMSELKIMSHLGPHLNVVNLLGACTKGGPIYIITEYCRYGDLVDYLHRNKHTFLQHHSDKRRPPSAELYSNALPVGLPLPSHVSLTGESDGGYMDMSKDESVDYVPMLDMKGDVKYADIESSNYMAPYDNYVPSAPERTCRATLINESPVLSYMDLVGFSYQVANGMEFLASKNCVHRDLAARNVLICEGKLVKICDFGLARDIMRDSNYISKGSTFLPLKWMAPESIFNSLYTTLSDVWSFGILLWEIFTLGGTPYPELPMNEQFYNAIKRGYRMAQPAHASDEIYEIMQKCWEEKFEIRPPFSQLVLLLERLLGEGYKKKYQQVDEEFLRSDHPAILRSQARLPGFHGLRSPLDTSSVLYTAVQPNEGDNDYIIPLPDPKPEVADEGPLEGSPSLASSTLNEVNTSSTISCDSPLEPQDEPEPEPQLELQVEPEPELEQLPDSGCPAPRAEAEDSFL

SMILES	IC50
Cc1ccc(O)cc1Nc1ccnc2c1C(=O)Nc1cc(CNCCN3CCC(C)CC3)ccc1N2 [Example 110]	3.29 nM
Cc1ccc(O)cc1Nc1ccnc2c1C(=O)Nc1cc(CNCCN3CCCCCC3)ccc1N2 [Example 111]	4.03 nM
CCN(CC)CC(C)NCc1ccc2c(c1)NC(=O)c1c(Nc3cc(O)ccc3C)ccnc1N2 (centres unmarked) [Example 112]	2.34 nM
Cc1ccc(O)cc1Nc1ccnc2c1C(=O)Nc1cc(CNC3CCS(=O)(=O)C3)ccc1N2 (centres unmarked) [Example 113]	3.6 nM
Cc1ccc(O)cc1Nc1ccnc2c1C(=O)Nc1cc(CNCC(C)Cn3cccn3)ccc1N2 (centres unmarked) [Example 114]	1.83 nM
Cc1ccc(O)cc1Nc1ccnc2c1C(=O)Nc1cc(CNCCC(F)(F)F)ccc1N2 [Example 115]	3.93 nM
COCCOCCCNCc1ccc2c(c1)NC(=O)c1c(Nc3cc(O)ccc3C)ccnc1N2 [Example 116]	4.75 nM
Cc1ccc(O)cc1Nc1ccnc2c1C(=O)Nc1cc(CNC[C@H](C)c3ccccc3)ccc1N2 [Example 117]	3.46 nM
CCOCCC(C)NCc1ccc2c(c1)NC(=O)c1c(Nc3cc(O)ccc3C)ccnc1N2 (centres unmarked) [Example 118]	4.02 nM
Cc1ccc(O)cc1Nc1ccnc2c1C(=O)Nc1cc(CNCc3ccc(F)cc3)ccc1N2 [Example 119]	1.92 nM
Cc1ccc(O)cc1Nc1ccnc2c1C(=O)Nc1cc(CNCc3cccc(F)c3)ccc1N2 [Example 120]	1.49 nM
Cc1ccc(O)cc1Nc1ccnc2c1C(=O)Nc1cc(CNC(C)CN(C)C)ccc1N2 (centres unmarked) [Example 122]	3.24 nM
Cc1ccc(O)cc1Nc1ccnc2c1C(=O)Nc1cc(CNCCc3ccncc3)ccc1N2 [Example 123]	7.14 nM
Cc1ccc(O)cc1Nc1ccnc2c1C(=O)Nc1cc(CNC3CCCCC3C)ccc1N2 (centres unmarked) [Example 124]	3.02 nM
CCCNCc1ccc2c(c1)NC(=O)c1c(Nc3cc(O)ccc3C)ccnc1N2 [Example 125]	1.97 nM
Cc1ccc(O)cc1Nc1ccnc2c1C(=O)Nc1cc(CNCCF)ccc1N2 [Example 126]	2.24 nM
Cc1ccc(O)cc1Nc1ccnc2c1C(=O)Nc1cc(CNCC3CC3)ccc1N2 [Example 127]	3.52 nM
COCCCNCc1ccc2c(c1)NC(=O)c1c(Nc3cc(O)ccc3C)ccnc1N2 [Example 129]	3.99 nM
Cc1ccc(O)cc1Nc1ccnc2c1C(=O)Nc1cc(CNCC3CNC(=O)C3)ccc1N2 (centres unmarked) [Example 130]	2.31 nM

SMILES	IC50
Cc1ccc(O)cc1Nc1ccnc2c1C(=O)Nc1cc(CNC(C)(C)CN3CCCC3)ccc1N2 [Example 131]	2.05 nM
Cc1ccc(O)cc1Nc1ccnc2c1C(=O)Nc1cc(CNC(C)c3ccco3)ccc1N2 (centres unmarked) [Example 132]	2.89 nM
Cc1ccc(O)cc1Nc1ccnc2c1C(=O)Nc1cc(CNCCOCC3CCCO3)ccc1N2 (centres unmarked) [Example 133]	7.53 nM
Cc1ccc(O)cc1Nc1ccnc2c1C(=O)Nc1cc(CNCC(C)N3CCOCC3)ccc1N2 (centres unmarked) [Example 135]	5.74 nM
Cc1ccc(O)cc1Nc1ccnc2c1C(=O)Nc1cc(CNC3CCOCC3)ccc1N2 [Example 136]	2.05 nM
Cc1ccc(O)cc1Nc1ccnc2c1C(=O)Nc1cc(CNCC3CCC(=O)N3C)ccc1N2 (centres unmarked) [Example 137]	1.68 nM
Cc1ccc(O)cc1Nc1ccnc2c1C(=O)Nc1cc(CNC3CCN(C)CC3)ccc1N2 [Example 138]	2.41 nM
Cc1ccc(O)cc1Nc1ccnc2c1C(=O)Nc1cc(CNC3CCCNC3=O)ccc1N2 (centres unmarked) [Example 139]	3.58 nM
Cc1ccc(O)cc1Nc1ccnc2c1C(=O)Nc1cc(CNCC3CCN(C(C)C)C3)ccc1N2 (centres unmarked) [Example 140]	1.64 nM
Cc1ccc(O)cc1Nc1ccnc2c1C(=O)Nc1cc(CNCCN3CCCC3=O)ccc1N2 [Example 141]	3.48 nM
Cc1ccc(O)cc1Nc1ccnc2c1C(=O)Nc1cc(CNCC(C)(C)C)ccc1N2 [Example 142]	2.11 nM
Cc1ccc(O)cc1Nc1ccnc2c1C(=O)Nc1cc(CNCCC(=O)N(C)C)ccc1N2 [Example 143]	5.55 nM
Cc1ccc(O)cc1Nc1ccnc2c1C(=O)Nc1cc(CNCC(C)(C)N(C)C)ccc1N2 [Example 144]	7.72 nM
Cc1ccc(O)cc1Nc1ccnc2c1C(=O)Nc1cc(CNCc3ccccc3)ccc1N2 [Example 145]	5.82 nM
Cc1ccc(O)cc1Nc1ccnc2c1C(=O)Nc1cc(CNCc3cccnc3)ccc1N2 [Example 146]	7.56 nM
Cc1ccc(O)cc1Nc1ccnc2c1C(=O)Nc1cc(CNc3ccccc3F)ccc1N2 [Example 147]	52.9 nM
Cc1ccc(O)cc1Nc1ccnc2c1C(=O)Nc1cc(CNCC(O)CO)ccc1N2 (centres unmarked) [Example 148]	1.52 nM
Cc1ccc(O)cc1Nc1ccnc2c1C(=O)Nc1cc(CNCCCOC(C)C)ccc1N2 [Example 149]	1.74 nM
Cc1ccc(O)cc1Nc1ccnc2c1C(=O)Nc1cc(CNC3CC3)ccc1N2 [Example 151]	3.71 nM

SMILES	IC50
Cc1ccc(O)cc1Nc1ccnc2c1C(=O)Nc1cc(CNCC(C)C)ccc1N2 [Example 152]	4.42 nM
CCC(C)CNCc1ccc2c(c1)NC(=O)c1c(Nc3cc(O)ccc3C)ccnc1N2 (centres unmarked) [Example 153]	3.61 nM
Cc1ccc(O)cc1Nc1ccnc2c1C(=O)Nc1cc(CNC3CCCC3)ccc1N2 [Example 154]	2.1 nM
CCC(CC)NCc1ccc2c(c1)NC(=O)c1c(Nc3cc(O)ccc3C)ccnc1N2 [Example 155]	2.33 nM
Cc1ccc(O)cc1Nc1ccnc2c1C(=O)Nc1cc(CNCCN(C)C)ccc1N2 [Example 156]	3.31 nM
Cc1ccc(O)cc1Nc1ccnc2c1C(=O)Nc1cc(CNC(C)C(C)C)ccc1N2 (centres unmarked) [Example 157]	3.4 nM
Cc1cc(F)c(Nc2ccnc3c2C(=O)Nc2cc(C(=O)N4C[C@H](O)C[C@H]4CO)ccc2N3)cc1O [Example 160, 4-[(2-Fluoro-5-hydroxy-4-methylphenyl)amino]-8-{[(2S,4R)-4-hydroxy-2-(hydroxymethyl)pyrrolidin-1-yl]carbonyl}-6,11-dihydro-5H-pyrido[2,3-b][1,5]benzodiazepin-5-one]	7.25 nM
Cc1cc(F)c(Nc2ccnc3c2C(=O)Nc2cc(C(=O)N4CCC(CCO)CC4)ccc2N3)cc1O [Example 161, 4-[(2-Fluoro-5-hydroxy-4-methylphenyl)amino]-8-{[4-(2-hydroxyethyl)piperidin-1-yl]carbonyl}-6,11-dihydro-5H-pyrido[2,3-b][1,5]benzodiazepin-5-one]	10.7 nM
Cc1cc(F)c(Nc2ccnc3c2C(=O)Nc2cc(CN4CC5CC5C4CO)ccc2N3)cc1O (stereo not drawn) [Example 164, 4-[(2-Fluoro-5-hydroxy-4-methylphenyl)amino]-8-{[cis-2-(hydroxymethyl)-3-azabicyclo[3.1.0]hex-3-yl]methyl}-6,11-dihydro-5H-pyrido[2,3-b][1,5]benzodiazepin-5-one]	3.71 nM
Cc1cc(F)c(Nc2ccnc3c2C(=O)Nc2cc(CNCCO)ccc2N3)cc1O [Example 167, 4-[(2-Fluoro-5-hydroxy-4-methylphenyl)amino]-8-{[(2-hydroxyethyl)amino]methyl}-6,11-dihydro-5H-pyrido[2,3-b][1,5]benzodiazepin-5-one]	1.31 nM
CC[C@@H](C)[C@@H](CO)NCc1ccc2c(c1)NC(=O)c1c(Nc3cc(O)c(C)cc3F)ccnc1N2 [Example 172, 4-[(2-Fluoro-5-hydroxy-4-methylphenyl)amino]-8-({[(2S,3R)-1-hydroxy-3-methylpentan-2-yl]amino}methyl)-6,11-dihydro-5H-pyrido[2,3-b][1,5]benzodiazepin-5-one]	4.11 nM
Cc1cc(F)c(Nc2ccnc3c2C(=O)Nc2cc(CN[C@@H](CO)C(N)=O)ccc2N3)cc1O [Example 173, N^2-({4-[(2-Fluoro-5-hydroxy-4-methylphenyl)amino]-5-oxo-6,11-dihydro-5H-pyrido[2,3-b][1,5]benzodiazepin-8-yl}methyl)-L-serinamide]	4.41 nM
O=C1Nc2cc(CN3CCC(O)CC3)ccc2Nc2nccc(Nc3cc(O)c(Cl)cc3F)c21 [Example 175, 4-[(4-Chloro-2-fluoro-5-hydroxyphenyl)amino]-8-[(4-hydroxypiperidin-1-yl)methyl]-6,11-dihydro-5H-pyrido[2,3-b][1,5]benzodiazepin-5-one]	1.26 nM
Cc1cc(F)c(Nc2ccnc3c2C(=O)Nc2cc(CNC[C@@H]4CCN(C(=O)OC(C)(C)C)C[C@H]4O)ccc2N3)cc1O [Example 176, tert-Butyl (3S,4S)-4-{[({4-[(2-fluoro-5-hydroxy-4-methylphenyl)amino]-5-oxo-6,11-dihydro-5H-pyrido[2,3-b][1,5]benzodiazepin-8-yl}methyl)amino]methyl}-3-hydroxypiperidine-1-carboxylate]	3.45 nM
Cc1cc(F)c(Nc2ccnc3c2C(=O)Nc2cc(C(=O)N4CCC(O)CC4)ccc2N3)cc1O [Example 178, 4-[(2-Fluoro-5-hydroxy-4-methylphenyl)amino]-8-[(4-hydroxypiperidin-1-yl)carbonyl]-6,11-dihydro-5H-pyrido[2,3-b][1,5]benzodiazepin-5-one]	14.8 nM
Cc1cc(F)c(Nc2ccnc3c2C(=O)Nc2cc(C(=O)N[C@H]4CC[C@H](O)CC4)ccc2N3)cc1O [Example 180, 4-[(2-Fluoro-5-hydroxy-4-methylphenyl)amino]-N-(trans-4-hydroxycyclohexyl)-5-oxo-6,11-dihydro-5H-pyrido[2,3-b][1,5]benzodiazepine-8-carboxamide]	2.43 nM
Cc1cc(F)c(Nc2ccnc3c2C(=O)Nc2cc(CN4CCC5(O)CCCCC5C4)ccc2N3)cc1O (centres unmarked) [Example 183, 4-[(2-Fluoro-5-hydroxy-4-methylphenyl)amino]-8-[(4a-hydroxyoctahydroisoquinolin-2(1H)-yl)methyl]-6,11-dihydro-5H-pyrido[2,3-b][1,5]benzodiazepin-5-one]	1.2 nM
Cc1cc(F)c(Nc2ccnc3c2C(=O)Nc2cc(CN[C@@H](CO)Cc4cnc[nH]4)ccc2N3)cc1O [Example 184, 4-[(2-Fluoro-5-hydroxy-4-methylphenyl)amino]-8-({[(2R)-1-hydroxy-3-(1H-imidazol-5-yl)propan-2-yl]amino}methyl)-6,11-dihydro-5H-pyrido[2,3-b][1,5]benzodiazepin-5-one]	1.62 nM
